# Results reported in PubChem BioAssay (NCI).
#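 Dose response: 5 concentrations. Exposure: 48 h. Format: 96-well plates. Endpoint: linear interpolation; highest concentration if not reached. Definition used: TGI = concentration required for complete inhibition of growth.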
# Legend:
# Test in all cases: inhibition of tumour cell growth, NCI panel, 48 h
# HCT-116 colon = system: HCT-116 colon
# UACC-62 melanoma = system: UACC-62 melanoma
# SF-295 CNS = system: SF-295 CNS
# 786-0 renal = system: 786-0 renal
# MDA-N = system: MDA-N
# NCI-H23 lung = system: NCI-H23 lung
# RPMI-8226 leukemia = system: RPMI-8226 leukemia
# PC-3 prostate = system: PC-3 prostate
# LOX IMVI melanoma = system: LOX IMVI melanoma
# U251 CNS = system: U251 CNS
# SW-620 colon = system: SW-620 colon
# SN12C renal = system: SN12C renal
# T-47D breast = system: T-47D breast
# IGROV1 ovarian = system: IGROV1 ovarian
# A549 NSCLC = system: A549 NSCLC
# EKVX NSCLC = system: EKVX NSCLC
# BT-549 breast = system: BT-549 breast
# NCI-H226 lung = system: NCI-H226 lung
# HCT-15 colon = system: HCT-15 colon
# M14 melanoma = system: M14 melanoma
# CAKI-1 renal = system: CAKI-1 renal
# SF-539 CNS = system: SF-539 CNS
# OVCAR-5 ovarian = system: OVCAR-5 ovarian
# NCI/ADR-RES ovarian = system: NCI/ADR-RES ovarian
# OVCAR-8 ovarian = system: OVCAR-8 ovarian
# MCF7 breast = system: MCF7 breast
# A498 renal = system: A498 renal
# HOP-92 NSCLC = system: HOP-92 NSCLC
# DU-145 prostate = system: DU-145 prostate
# SK-OV-3 ovarian = system: SK-OV-3 ovarian
# OVCAR-3 ovarian = system: OVCAR-3 ovarian
# NCI-H460 lung = system: NCI-H460 lung
# COLO 205 colon = system: COLO 205 colon
# SK-MEL-5 melanoma = system: SK-MEL-5 melanoma
# HCC-2998 colon = system: HCC-2998 colon
# UACC-257 melanoma = system: UACC-257 melanoma
# MOLT-4 leukemia = system: MOLT-4 leukemia
# K-562 leukemia = system: K-562 leukemia
# HT29 colon = system: HT29 colon
# KM12 colon = system: KM12 colon
# MDA-MB-435 = system: MDA-MB-435
# ACHN renal = system: ACHN renal
# SNB-75 CNS = system: SNB-75 CNS
# SK-MEL-2 melanoma = system: SK-MEL-2 melanoma
# SNB-19 CNS = system: SNB-19 CNS
# CCRF-CEM leukemia = system: CCRF-CEM leukemia
# UO-31 renal = system: UO-31 renal
# SK-MEL-28 melanoma = system: SK-MEL-28 melanoma
# HOP-62 NSCLC = system: HOP-62 NSCLC
# SR leukemia = system: SR leukemia
# MDA-MB-231 breast = system: MDA-MB-231 breast
# TK-10 renal = system: TK-10 renal
# NCI-H522 lung = system: NCI-H522 lung
# MALME-3M melanoma = system: MALME-3M melanoma
# HS 578T breast = system: HS 578T breast
# OVCAR-4 ovarian = system: OVCAR-4 ovarian
# RXF 393 renal = system: RXF 393 renal
# SF-268 CNS = system: SF-268 CNS
# HL-60(TB) leukemia = system: HL-60(TB) leukemia
smiles,measurement,setting,value
CCOC(=O)c1c(O)cc(=O)[nH]c1N1CCOCC1,TGI,HCT-116 colon,> 100 µM
same,TGI,UACC-62 melanoma,> 100 µM
same,TGI,SF-295 CNS,> 100 µM
same,TGI,786-0 renal,> 100 µM
same,TGI,MDA-N,> 100 µM
same,TGI,NCI-H23 lung,> 100 µM
same,TGI,RPMI-8226 leukemia,> 100 µM
same,TGI,PC-3 prostate,> 100 µM
same,TGI,LOX IMVI melanoma,> 100 µM
same,TGI,U251 CNS,> 100 µM
same,TGI,SW-620 colon,> 100 µM
same,TGI,SN12C renal,> 100 µM
same,TGI,T-47D breast,> 100 µM
same,TGI,IGROV1 ovarian,> 100 µM
same,TGI,A549 NSCLC,> 100 µM
same,TGI,EKVX NSCLC,> 100 µM
same,TGI,BT-549 breast,> 100 µM
same,TGI,NCI-H226 lung,> 100 µM
same,TGI,HCT-15 colon,> 100 µM
same,TGI,M14 melanoma,> 100 µM
same,TGI,CAKI-1 renal,> 100 µM
same,TGI,SF-539 CNS,> 100 µM
same,TGI,OVCAR-5 ovarian,> 100 µM
same,TGI,NCI/ADR-RES ovarian,> 100 µM
same,TGI,OVCAR-8 ovarian,> 100 µM
same,TGI,MCF7 breast,> 100 µM
same,TGI,A498 renal,> 100 µM
same,TGI,HOP-92 NSCLC,> 100 µM
same,TGI,DU-145 prostate,> 100 µM
same,TGI,SK-OV-3 ovarian,> 100 µM
same,TGI,OVCAR-3 ovarian,> 100 µM
same,TGI,NCI-H460 lung,> 100 µM
same,TGI,COLO 205 colon,> 100 µM
same,TGI,SK-MEL-5 melanoma,> 100 µM
same,TGI,HCC-2998 colon,> 100 µM
same,TGI,UACC-257 melanoma,> 100 µM
same,TGI,MOLT-4 leukemia,> 100 µM
same,TGI,K-562 leukemia,> 100 µM
same,TGI,HT29 colon,> 100 µM
same,TGI,KM12 colon,> 100 µM
same,TGI,MDA-MB-435,> 100 µM
same,TGI,ACHN renal,> 100 µM
same,TGI,SNB-75 CNS,> 100 µM
same,TGI,SK-MEL-2 melanoma,> 100 µM
same,TGI,SNB-19 CNS,> 100 µM
same,TGI,CCRF-CEM leukemia,> 100 µM
same,TGI,UO-31 renal,> 100 µM
same,TGI,SK-MEL-28 melanoma,> 100 µM
same,TGI,HOP-62 NSCLC,> 100 µM
same,TGI,SR leukemia,> 100 µM
C=CCNC(=O)NNC(O)(C(=O)OCC)C(F)(F)F (configuration not stated),TGI,HCT-116 colon,> 100 µM
same,TGI,786-0 renal,> 100 µM
same,TGI,MDA-N,> 100 µM
same,TGI,NCI-H23 lung,> 100 µM
same,TGI,RPMI-8226 leukemia,> 100 µM
same,TGI,PC-3 prostate,> 100 µM
same,TGI,LOX IMVI melanoma,> 100 µM
same,TGI,U251 CNS,> 100 µM
same,TGI,SW-620 colon,> 100 µM
same,TGI,MDA-MB-231 breast,> 100 µM
same,TGI,SN12C renal,> 100 µM
same,TGI,T-47D breast,> 100 µM
same,TGI,IGROV1 ovarian,> 100 µM
same,TGI,A549 NSCLC,> 100 µM
same,TGI,EKVX NSCLC,> 100 µM
same,TGI,TK-10 renal,> 100 µM
same,TGI,NCI-H226 lung,> 100 µM
same,TGI,HCT-15 colon,> 100 µM
same,TGI,M14 melanoma,> 100 µM
same,TGI,CAKI-1 renal,> 100 µM
same,TGI,SF-539 CNS,> 100 µM
same,TGI,OVCAR-5 ovarian,> 100 µM
same,TGI,NCI/ADR-RES ovarian,> 100 µM
same,TGI,OVCAR-8 ovarian,> 100 µM
same,TGI,MCF7 breast,> 100 µM
same,TGI,A498 renal,> 100 µM
same,TGI,HOP-92 NSCLC,> 100 µM
same,TGI,NCI-H522 lung,> 100 µM
same,TGI,DU-145 prostate,> 100 µM
same,TGI,SK-OV-3 ovarian,> 100 µM
same,TGI,OVCAR-3 ovarian,> 100 µM
same,TGI,MALME-3M melanoma,> 100 µM
same,TGI,NCI-H460 lung,> 100 µM
same,TGI,COLO 205 colon,> 100 µM
same,TGI,SK-MEL-5 melanoma,> 100 µM
same,TGI,HCC-2998 colon,> 100 µM
same,TGI,HS 578T breast,> 100 µM
same,TGI,UACC-257 melanoma,> 100 µM
same,TGI,MOLT-4 leukemia,> 100 µM
same,TGI,K-562 leukemia,> 100 µM
same,TGI,HT29 colon,> 100 µM
same,TGI,KM12 colon,> 100 µM
same,TGI,OVCAR-4 ovarian,> 100 µM
same,TGI,MDA-MB-435,> 100 µM
same,TGI,RXF 393 renal,> 100 µM
same,TGI,ACHN renal,> 100 µM
same,TGI,SNB-75 CNS,> 100 µM
same,TGI,SK-MEL-2 melanoma,> 100 µM
same,TGI,SNB-19 CNS,> 100 µM
same,TGI,CCRF-CEM leukemia,> 100 µM
same,TGI,SF-268 CNS,> 100 µM
same,TGI,UO-31 renal,> 100 µM
same,TGI,SK-MEL-28 melanoma,> 100 µM
same,TGI,HOP-62 NSCLC,> 100 µM
same,TGI,HL-60(TB) leukemia,> 100 µM
same,TGI,SR leukemia,> 100 µM
COc1c(-c2ccccc2)oc2c(CP(=O)(OC)OC)cccc2c1=O,TGI,HCT-116 colon,> 100 µM
same,TGI,UACC-62 melanoma,> 100 µM
same,TGI,SF-295 CNS,> 100 µM
same,TGI,786-0 renal,> 100 µM
same,TGI,MDA-N,> 100 µM
same,TGI,NCI-H23 lung,> 100 µM
same,TGI,RPMI-8226 leukemia,53.8 µM
same,TGI,PC-3 prostate,> 100 µM
same,TGI,U251 CNS,> 100 µM
same,TGI,MDA-MB-231 breast,> 100 µM
same,TGI,SN12C renal,> 100 µM
same,TGI,T-47D breast,> 100 µM
same,TGI,IGROV1 ovarian,> 100 µM
same,TGI,A549 NSCLC,> 100 µM
same,TGI,EKVX NSCLC,> 100 µM
same,TGI,TK-10 renal,> 100 µM
same,TGI,BT-549 breast,> 100 µM
same,TGI,M14 melanoma,> 100 µM
same,TGI,CAKI-1 renal,5.11 µM
same,TGI,SF-539 CNS,> 100 µM
same,TGI,OVCAR-5 ovarian,> 100 µM
same,TGI,MCF7 breast,> 100 µM
same,TGI,A498 renal,> 100 µM
same,TGI,NCI-H522 lung,> 100 µM
same,TGI,DU-145 prostate,> 100 µM
same,TGI,SK-OV-3 ovarian,> 100 µM
same,TGI,OVCAR-3 ovarian,> 100 µM
same,TGI,MALME-3M melanoma,> 100 µM
same,TGI,COLO 205 colon,> 100 µM
same,TGI,SK-MEL-5 melanoma,> 100 µM
same,TGI,HCC-2998 colon,> 100 µM
same,TGI,UACC-257 melanoma,> 100 µM
same,TGI,MOLT-4 leukemia,> 100 µM
same,TGI,K-562 leukemia,> 100 µM
same,TGI,MDA-MB-435,> 100 µM
same,TGI,RXF 393 renal,> 100 µM
same,TGI,SK-MEL-2 melanoma,> 100 µM
same,TGI,CCRF-CEM leukemia,> 100 µM
same,TGI,UO-31 renal,41.9 µM
same,TGI,HOP-62 NSCLC,> 100 µM
same,TGI,SR leukemia,> 100 µM
